Source: US5298491A, “Derivatives of endogenous mediators, their salts, method of preparation, applications and compositions in which they are present” (priority 1990, dated 1994)

Columns and labels:
[1] = Distribution of labelling in vivo with a gamma camera after intravenous injection; settings: mice
Method: 2. Study of the distribution of the binding of the derivative S--CM-G[125]TNH2 by visualization in vivo with a gamma camera
The animals (mice) are anaesthetized and injected intravenously with the derivative S--CM-G[^125 I]TNH2. […] In this latter zone, the labelling is retained for 15 to 20 minutes before slowly disappearing.

5-HT1C sites [2] = assay: Labelling of guinea-pig choroid plexus (autoradiography); type: binding; settings: 0.03 nM
Method: (§1) The protocol for preparing the brain sections is common to all the studies which follow. The animals are decapitated after anaesthesia with chloral hydrate (400 mg/kg of gross weight). The brains are quickly removed from the skull and frozen by immersion in isopentane cooled by liquid nitrogen. 20 μm sections, prepared in a cryostat at -20° C., are mounted on gelatin-coated slides and stored at -20° C.
(§2) The sections are preincubated for 1 hour at 4° C. in a Krebs solution (NaCl 118 mM; KCl 4.8 mm; CaCl2 1.2 mM; MgCl2 1.2 mM; Tris-HCl 15 mM, pH 7.4) in order to remove the endogenous ligands.
(§3) The incubations take place for 60 minutes at 20° C. in a Krebs solution containing 10 μM pargyline, 5.7.10^-4 M ascorbic acid, 10 g/l of bovine serum albumin (fraction V, Sigma) and 0.03 nmol/l of the derivative S--CM-[^125 I]--R. The non-specific binding is determined on homothetic sections under the same conditions, but in the presence of 10^-5 M 5-HT.
(§4) After incubation, the sections are rinsed twice for 1 min in distilled water and dried by a stream of hot air. The sections are affixed to a kilm (Amersham) for one week in the presence of standards ([^125 I] microscale, Amersham). The films are developed for 6 min with Kodak D19, rinsed and fixed with AL4 (Kodak). Quantitative analysis of the autoradiographs is performed with an image analysis system (Segu et al., op. cit.).

5-HT1D sites [3] = assay: Labelling of 5-HT1D structures of guinea-pig brain sections (autoradiography); type: binding
Method: as §1, §2, §3, §4
In the central nervous system of the guinea-pig, the anatomical structures containing sites of the 5-HT1A type and the pharmacology of these sites are the same as in the rat. By contrast, the pharmacology of the sites contained in the substantia nigra of the guinea-pig is different from that of the sites of the same structure in the rat (Heuring and Peroutka, J. Neurosci., 7, 1987, p. 894-903). These sites are therefore denotedas 5-HT1D.

5-HT1A sites [4] = assay: Labelling of guinea-pig hippocampus (autoradiography); type: binding; settings: 0.03 nM
Method: as §1, §2, §3
as §4, with “cit.). […]” for “cit.).”

5-HT1A sites [5] = assay: Labelling of rat hippocampus (autoradiography); type: binding; settings: 0.03 nM
Method: as §1, §2, §3
as §4, with “cit.). […]” for “cit.).”

[6] = Passage across the blood-brain barrier after intracardiac injection (brain autoradiography); type: in vivo, mice and guinea-pigs; settings: 10 minutes; for passage across the blood-brain barrier: intracardiac injection, conclusion
Method: (§5) 2 mice and 2 guinea-pigs are deeply anaesthetized with chloral hydrate (intraperitoneal injection of 0.12 ml of a 35% solution per 100 g of body weight).
(§6) The mice and guinea-pigs receive intracardiac injections of 200 μl and 1.5 ml, respectively, of S--CM-G[^125 I]TNH2.
(§7) After 10 minutes, the animals, still under deep anaesthesia, are decapitated and the brains are frozen and stored as indicated in Example 1.
Sections are prepared and autoradiography is carried out as described in Example 1.

5-HT1C sites [7] = assay: Labelling of rat choroid plexus (autoradiography); type: binding; settings: 0.03 nM
Method: as §1, §2, §3
as §4, with “cit.). […]” for “cit.).”

[8] = Toxicity observed at the injected dose; type: in vivo, mice and guinea-pigs
Method: as §5, §6, §7

5-HT1D sites [9] = target: T1, 5-HT1D sites (Macaca mulatta, UniProt F6SFA9); assay: Labelling of substantia nigra in monkey brain sections (autoradiography); type: binding, monkey (Macacca mulatta n.); settings: for binding to / marker for 5-HT1D sites: conclusion
T1 construct: The right hemisphere is cut out and frozen by isopentane cooled in liquid nitrogen; from tissue; host or cells: rhesus monkey brain sections (right hemisphere, 10 μm, frozen), substantia nigra
T1 sequence (F6SFA9 1-390): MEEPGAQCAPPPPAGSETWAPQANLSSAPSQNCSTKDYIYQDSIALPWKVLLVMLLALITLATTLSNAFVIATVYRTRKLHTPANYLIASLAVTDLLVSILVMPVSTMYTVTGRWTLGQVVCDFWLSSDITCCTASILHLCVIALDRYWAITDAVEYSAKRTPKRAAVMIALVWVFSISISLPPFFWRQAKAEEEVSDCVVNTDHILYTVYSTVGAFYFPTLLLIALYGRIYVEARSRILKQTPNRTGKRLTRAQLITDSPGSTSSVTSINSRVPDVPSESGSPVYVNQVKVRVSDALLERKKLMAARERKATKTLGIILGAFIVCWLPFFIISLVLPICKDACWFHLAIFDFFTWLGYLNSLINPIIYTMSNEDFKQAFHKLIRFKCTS
Method: A male monkey (Macacca mulatta n.) weighing 8 kg was sacrificed by means of an overdose of barbiturates and exsanguination. […] The right hemisphere is cut out and frozen by isopentane cooled in liquid nitrogen. The block is stored at -20° C. […] They are stored at -20° C. until required.
Some of the sections are incubated under identical conditions except that the radioactive probe is replaced either with 2 nM [^3 H]5-HT, or with 2 nM [^3 H]5-HT in the presence of 100 nM 8-hydroxy-2-[di-N-propylamino]tetralin (8-OH-DPAT) and 100 nM mesulergin, or with 1 nM [^3 H]8-OH-DPAT. After rinsing 2 x for 1 minute in distilled water, the sections are dried.
The slides are affixed to a tritium-sensitive film for 8 days. The film is developed for 6 minutes in D19, rinsed and fixed.

5-HT1D receptors = assay: Labelling of locus niger in postmortem human brain sections (autoradiography); type: binding
Method: (§8) The sections are preincubated for 1 h at 4° C. in a Krebs solution (mM: NaCl, 118; KCl, 4.5; CaCl2, 1.2; MgCl2, […]; Tris, 15; pH 7.4) in order to remove the endogenous ligands. They are then incubated at 20° C. for 60 minutes in a solution containing 10^-5 M pargyline, 57 mM ascorbic acid, 10 g/l of bovine serum albumin and 0.02 nM S--CM-G[^125 I]TNH2, alone or in the presence of increasing concentrations of serotonin. Some of the sections are incubated under identical conditions except that the radioactive probe is replaced either with 2 nM [^3 H]5-HT, or with 2 nM [^3 H]5-HT in the presence of 100 nM 8-hydroxy-2-[di-N-propylamino]tetralin (8-OH-DPAT) and 100 nM mesulergin, or with 1 nM [^3 H]8-OH-DPAT. After rinsing 2 x for 1 minute in distilled water, the sections are dried.
(§9) The slides are affixed to a tritium-sensitive film for 8 days. The film is developed for 6 minutes in D19, rinsed and fixed. The autoradiographs are quantified with a video system for image analysis (Segu et al., 1990).
(§10) a) Postmortem human brains are stored at -20° C. 10 μm sections are prepared from blocks containing either the locus niger or the Ammon's horn. The sections are treated as indicated in 4. for the monkey brain sections.
(§11) The locus niger contains virtually exclusively binding sites of the 5-HT1D type, whereas the Ammon's horn is composed predominantly of sites of the 5-HT1A type.

serotonin receptors = assay: Affinity and selectivity for serotonin receptor sites; type: binding
5-HT1A sites [10] = assay: Labelling of Ammon's horn in postmortem human brain sections (autoradiography); type: binding; settings: treated as monkey sections
Method: as §8, §9, §10, §11

[11] = system: other receptors which are not of the 5-HT type (such as β-adrenergic receptors); assay: Binding to receptors not of the 5-HT type
5-HT1B sites = 5-HT1B sites (Rattus norvegicus, UniProt P28564); assay: Labelling of 5-HT1B structures of rat brain sections (autoradiography); type: binding
Sequence of 5-HT1B sites (P28564 whole entry): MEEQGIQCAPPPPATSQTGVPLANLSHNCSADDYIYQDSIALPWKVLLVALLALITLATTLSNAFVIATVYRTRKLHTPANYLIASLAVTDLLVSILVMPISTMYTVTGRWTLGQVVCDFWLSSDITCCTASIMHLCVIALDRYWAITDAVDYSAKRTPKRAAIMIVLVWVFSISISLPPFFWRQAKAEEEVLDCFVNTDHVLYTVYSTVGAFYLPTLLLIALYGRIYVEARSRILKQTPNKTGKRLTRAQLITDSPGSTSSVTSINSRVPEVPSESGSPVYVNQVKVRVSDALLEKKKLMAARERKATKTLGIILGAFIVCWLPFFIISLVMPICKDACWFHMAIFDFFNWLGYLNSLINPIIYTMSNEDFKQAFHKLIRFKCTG
Method: as §1, §2, §3, §4
This last structure is known for containing almost exclusively binding sites of the 5-HT1A type, whereas the others contain sites of the 5-HT1B type (Hoyer et al., Eur. J. Pharmacol., 118, 1985, P. 1-12). In the anterior region, the striatum (ST) is labelled: it contains especially 5-HT1B sites; the choroid plexus (Px), which contains 5-HT1c sites, is not labelled.

rat central receptors = assay: Labelling of rat brain sections with iodinated derivatives (autoradiography); settings: 0.03 nM iodinated derivative; non-specific binding with 10^-5 M 5-HT
Method: as §1

For `NCCc1c[nH]c2ccc(OCC(=O)NCC(=O)N[C@@H](Cc3ccc(O)c([125I])c3)C(N)=O)cc12` [S--CM-G[^125 I]TNH2], the “labelling of the vascular system 10 minutes after the injection” value ([1]; 10 minutes) was “the labelling decreases in the vascular system, except for the heart and the cerebral vascular system”, the “initial distribution of labelling” value ([1]; gamma camera) was “very quickly observed to diffuse into the heart, the entire vascular system and the liver” and the “labelling of the bladder” value ([1]; longer term) was “increases in the longer term”. The “labelling of the heart” value ([1]; longer term) was “remaining labelled for a fairly long time”, the “labelling of the choroid plexus” value (5-HT1C sites [2]) was “not labelled” and the “labelling of the substantia nigra” value (5-HT1D sites [3]; 0.03 nM) was “labels the substantia nigra”. For the same compound, the “labelling of St, SD and SN” value (5-HT1D sites [3]; FIG. 6, 0.03 nM) was “labelled”, the “marker for 5-HT1D sites” value (5-HT1D sites [3]; conclusion) was “marker for sites with a high affinity for serotonin of the 1D type” and the “labelling of the hippocampus” value (5-HT1A sites [4]; listed as S--CM-G[^125I]TNH2) was “not the hippocampus”. The “labelling of the hippocampus” value (5-HT1A sites [4]; listed as S-CM-G[^125 I]TNH2) was “not labelled”, the “labelling of the hippocampus” value (5-HT1A sites [5]) was “no labelling” and the “labelling of the hippocampus” value (5-HT1A sites [5]; listed as S-CM-G[^125 I]TNH2) was “not labelled”. For the same compound, the “labelling of brain sections after in vivo injection” value ([6]; intracardiac injection (mice 200 μl, guinea-pigs 1.5 ml)) was “no labelling”, the “passage across the blood-brain barrier” value [6] was “does not cross the blood-brain barrier” and the “passage across the blood-brain barrier” value ([6]; listed as S--CM-G[125]TNH2) was “does not pass through the blood-brain barrier”. For the same compound, the “labelling of the choroid plexus” value (5-HT1C sites [7]) was “not labelled”, the toxicity [8] was “No toxicity was observed” and the “labelling of the substantia nigra” value (5-HT1D sites [9]; 0.02 nM S-CM-G[125I]TNH2) was “virtually exclusive labelling of the substantia nigra”. The “labelling of the substantia nigra” value (5-HT1D sites [9]; 0.02 nM S-CM-G[125I]TNH2, listed as [^125 I]S-CM-GTNH2) was “exclusive labelling of the substantia nigra”, the “binding to / marker for 5-HT1D sites” value (5-HT1D sites [9]) was “marker for 5-HT1D receptors” and the “binding to / marker for 5-HT1D sites” value (5-HT1D sites [9]; listed as S--CM-G[^125 I9 TNH2) was “specific for the 5-HT1D sites”. For the same compound, the “binding to / marker for 5-HT1D sites” value (5-HT1D sites [9]; listed as S--CM-G[^125 I ]TNH2) was “binds to the 5-HT1D sites”, the “labelling of 5-HT1D receptors of the human brain in vitro” value (5-HT1D receptors; conclusion) was “labels the 5-HT1D receptors of the human brain in vitro” and the “labelling of the locus niger” value (5-HT1D receptors; postmortem, treated as monkey sections) was “strong labelling”. The “preferential affinity among 5-HT1 sites” value (serotonin receptors; 5-HT1B and 5-HT1D vs 5-HT1A and 5-HT1C) was “preferential affinity for the 5-HT1B and 5-HT1D sites compared with the 5-HT1A and 5-HT1C sites”, the “ligand labelling of the 5-HT1D sites” value (serotonin receptors; compared with other ligands) was “only ligand to label the 5-HT1D sites” and the “labelling of the Ammon's horn” value (5-HT1A sites [10]) was “weak labelling”. The “selectivity vs receptors not of the 5-HT type” value [11] was “high selectivity without binding to other receptors which are not of the 5-HT type”, the “labelling of St, SD and SN” value (5-HT1B sites; FIG. 5, 0.03 nM) was “labelled” and the “labelling of the striatum” value (5-HT1B sites; anterior region, 0.03 nM) was “labelled”. The “marker specificity for 5-HT1B sites” value (5-HT1B sites; conclusion) was “specific marker for binding sites with a high affinity for serotonin of the 1B type”, the “labelling of the substantia nigra and the dorsal subiculum” value (5-HT1B sites; mesencephalic region, 0.03 nM) was “intense labelling” and the “labelling / specific retention on rat brain sections” value (rat central receptors) was “retained specifically on rat brain sections”.
